# Measurements reported in ChEMBL document CHEMBL4368941, “Discovery of 3,6-diaryl-1H-pyrazolo[3,4-b]pyridines as potent anaplastic lymphoma kinase (ALK) inhibitors” (Bioorg Med Chem Lett, 2019).
# Tests used:
# [1] = molecular target: ALK tyrosine kinase receptor (Homo sapiens, UniProt Q9UM73)
# Description: Inhibition of recombinant ALK (unknown origin) using peptide substrate measured after 1 hr by LanthaScreen assay
# KARPAS-299 = assay: cells; conditions: Homo sapiens, KARPAS-299, 72 h
# Description: Antiproliferative activity against human KARPAS299 cells after 3 days by MTT assay
# Chain of ALK tyrosine kinase receptor (Q9UM73 whole entry): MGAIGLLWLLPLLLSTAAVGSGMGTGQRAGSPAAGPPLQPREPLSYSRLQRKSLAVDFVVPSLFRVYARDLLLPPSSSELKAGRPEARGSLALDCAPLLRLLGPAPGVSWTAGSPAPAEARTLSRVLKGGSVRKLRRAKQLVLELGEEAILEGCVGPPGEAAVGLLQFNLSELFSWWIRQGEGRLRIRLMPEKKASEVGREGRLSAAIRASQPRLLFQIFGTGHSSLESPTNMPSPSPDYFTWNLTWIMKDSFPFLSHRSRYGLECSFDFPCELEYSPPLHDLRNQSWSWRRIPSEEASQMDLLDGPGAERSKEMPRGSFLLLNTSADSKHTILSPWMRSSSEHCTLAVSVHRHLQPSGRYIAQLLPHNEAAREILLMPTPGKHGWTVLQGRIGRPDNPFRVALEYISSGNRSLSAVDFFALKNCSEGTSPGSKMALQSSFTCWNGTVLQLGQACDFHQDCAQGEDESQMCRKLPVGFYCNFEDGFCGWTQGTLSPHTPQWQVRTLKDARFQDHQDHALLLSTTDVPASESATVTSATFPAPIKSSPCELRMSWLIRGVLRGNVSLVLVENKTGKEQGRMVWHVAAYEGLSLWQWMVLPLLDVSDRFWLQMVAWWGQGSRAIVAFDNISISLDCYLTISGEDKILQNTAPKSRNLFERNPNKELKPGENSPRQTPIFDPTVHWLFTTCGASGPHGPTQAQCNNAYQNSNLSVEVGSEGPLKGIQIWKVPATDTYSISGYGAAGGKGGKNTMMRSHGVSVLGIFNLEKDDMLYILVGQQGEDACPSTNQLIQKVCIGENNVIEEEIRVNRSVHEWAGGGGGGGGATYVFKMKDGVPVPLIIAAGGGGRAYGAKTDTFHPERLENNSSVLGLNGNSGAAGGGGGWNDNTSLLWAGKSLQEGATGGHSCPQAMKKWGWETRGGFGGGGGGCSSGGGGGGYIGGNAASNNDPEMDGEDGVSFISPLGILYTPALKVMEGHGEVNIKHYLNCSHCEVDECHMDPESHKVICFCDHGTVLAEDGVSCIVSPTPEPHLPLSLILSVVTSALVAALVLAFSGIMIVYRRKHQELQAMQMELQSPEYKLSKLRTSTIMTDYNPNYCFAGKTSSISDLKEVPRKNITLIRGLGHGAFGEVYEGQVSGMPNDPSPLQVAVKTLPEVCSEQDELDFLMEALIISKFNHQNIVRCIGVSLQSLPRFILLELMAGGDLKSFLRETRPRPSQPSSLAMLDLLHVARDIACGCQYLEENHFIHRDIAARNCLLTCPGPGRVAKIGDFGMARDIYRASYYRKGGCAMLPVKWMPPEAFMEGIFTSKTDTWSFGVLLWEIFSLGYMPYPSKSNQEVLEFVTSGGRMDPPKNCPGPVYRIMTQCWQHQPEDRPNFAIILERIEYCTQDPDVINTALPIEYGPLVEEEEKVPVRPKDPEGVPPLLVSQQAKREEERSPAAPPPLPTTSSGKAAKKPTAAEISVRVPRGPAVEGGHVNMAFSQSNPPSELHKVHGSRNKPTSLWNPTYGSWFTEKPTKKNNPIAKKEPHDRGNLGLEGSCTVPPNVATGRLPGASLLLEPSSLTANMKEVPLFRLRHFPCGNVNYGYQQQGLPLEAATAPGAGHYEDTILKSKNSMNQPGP
IC50 [1] [nM],IC50 (KARPAS-299) [nM],Compound
394,–,Oc1ccc(-c2ccc3c(-c4ccc(CN5CCCCC5)o4)n[nH]c3n2)cc1
27,2850,COc1cc(N2CCN(C(C)C)CC2)ccc1-c1n[nH]c2nc(-c3ccc(O)cc3)ccc12
1.58,> 2000,CC(C)N1CCN(c2ccc(-c3n[nH]c4nc(-c5ccc(O)c(F)c5)ccc34)cc2)CC1
339,–,Oc1ccc(-c2ccc3c(-c4ccc(N5CCCCC5)cc4)n[nH]c3n2)cc1
83.2,–,CN(CCO)Cc1ccc(-c2n[nH]c3nc(-c4ccc(O)cc4)ccc23)o1
53.9,–,Cc1ccc(-c2n[nH]c3nc(-c4ccc(O)cc4)ccc23)o1
> 2000,–,CC(C)N1CCN(c2ccc(-c3n[nH]c4nc(-c5ccc(F)cc5)ccc34)cc2)CC1
> 2000,> 2000,CC(C)N1CCN(c2ccc(-c3n[nH]c4nc(-c5ccc(C#N)cc5)ccc34)cc2)CC1
> 2000,105000,CC(C)N1CCN(c2ccc(-c3n[nH]c4nc(-c5ccc(C(C)(C)O)cc5)ccc34)cc2)CC1
194,–,CN1CCN(Cc2ccc(-c3n[nH]c4nc(-c5ccc(O)cc5)ccc34)o2)CC1
649,149,CC(C)N1CCN(c2ccc(-c3n[nH]c4nc(-c5cc(F)c(O)c(F)c5)ccc34)cc2)CC1
253,–,Oc1ccc(-c2ccc3c(-c4ccc(CN5CCCC5)o4)n[nH]c3n2)cc1
39.6,2100,Oc1ccc(-c2ccc3c(-c4cnn(C5CCNCC5)c4)n[nH]c3n2)cc1F
568,–,OCC1CCCCN1Cc1ccc(-c2n[nH]c3nc(-c4ccc(O)cc4)ccc23)o1 (stereo not drawn)
130,–,Oc1ccc(-c2ccc3c(-c4ccc(O)cc4)n[nH]c3n2)cc1
103,–,CC(C)N1CCN(Cc2ccc(-c3n[nH]c4nc(-c5ccc(O)cc5)ccc34)o2)CC1
53.1,263,COc1cc(N2CCN(C(C)C)CC2)ccc1-c1n[nH]c2nc(-c3ccc(O)c(F)c3)ccc12
> 2000,> 10000,CC(C)N1CCN(c2ccc(-c3n[nH]c4nc(-c5ccc(Cl)cc5)ccc34)cc2)CC1
> 2000,–,Oc1ccc(-c2ccc3c(-c4ccc(Cl)cc4)n[nH]c3n2)cc1
94.1,–,Oc1ccc(-c2ccc3c(-c4ccc(CN5CCOCC5)o4)n[nH]c3n2)cc1
47.4,–,CC(C)N1CCN(c2ccc(-c3n[nH]c4nc(-c5ccc(O)cc5)ccc34)cc2)CC1
425,–,Oc1ccc(-c2ccc3c(-c4ccc(N5CCOCC5)cc4)n[nH]c3n2)cc1
218,> 10000,CC(C)N1CCN(c2ccc(-c3n[nH]c4nc(-c5ccc(N)cc5)ccc34)cc2)CC1
251,24.2,Oc1ccc(-c2ccc3c(-c4ccccc4)n[nH]c3n2)cc1
239,–,COc1ccc(-c2n[nH]c3nc(-c4ccc(O)cc4)ccc23)cc1
13.8,340,Oc1ccc(-c2ccc3c(-c4cnn(C5CCNCC5)c4)n[nH]c3n2)cc1
336,–,Oc1ccc(-c2ccc3c(-c4ccc(F)cc4)n[nH]c3n2)cc1
